Measurements from PubChem BioAssay (NCI).
Values joined by “and” are separate entries in the source; they are usually repeats but may differ in a detail not shown here. Equal entries are not always repeated.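 48-hour exposure; five concentrations; linearly interpolated endpoints. GI50 = concentration required for 50% inhibition of growth. The concentration for full growth arrest is given as TGI.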

What was measured:
Assay in all cases: inhibition of tumour cell growth, NCI panel, 48 h
HS 578T breast = tested on: HS 578T breast
PC-3 prostate = tested on: PC-3 prostate
BT-549 breast = tested on: BT-549 breast
MDA-MB-435 = tested on: MDA-MB-435
DU-145 prostate = tested on: DU-145 prostate
M19-MEL melanoma = tested on: M19-MEL melanoma
HOP-18 NSCLC = tested on: HOP-18 NSCLC
DLD-1 colon = tested on: DLD-1 colon
SNB-78 CNS = tested on: SNB-78 CNS

SMILES	GI50 (HS 578T breast) [µM]	TGI (HS 578T breast)	GI50 (PC-3 prostate) [µM]	TGI (PC-3 prostate) [µM]	GI50 (BT-549 breast) [µM]	TGI (BT-549 breast) [µM]	GI50 (MDA-MB-435) [µM]	TGI (MDA-MB-435) [µM]	GI50 (DU-145 prostate) [µM]	TGI (DU-145 prostate) [µM]	TGI (M19-MEL melanoma) [µM]	TGI (HOP-18 NSCLC) [µM]	TGI (DLD-1 colon) [µM]	TGI (SNB-78 CNS) [µM]	GI50 (HOP-18 NSCLC) [µM]	GI50 (DLD-1 colon) [µM]	GI50 (SNB-78 CNS) [µM]
Nc1nccc(C#Cc2cncnc2Nc2ccc(OCc3cccc(F)c3)c(Cl)c2)n1	6.32	20.5 µM	4.5	9.63	3.15	9.62	5.36	> 23.8	4.37	7.81	–	–	–	–	–	–	–
COC12c3ccccc3-c3ccccc3C1[C@@H](C(=O)O)[C@H]2C(=O)O (stereo not given in full)	–	> 10 µM	–	> 10	–	–	–	> 10	–	> 10	–	–	–	–	–	–	–
O=C1c2cccnc2-c2nc(-c3ccccc3)cc3c2c1nc1ccccc13	16.6	42.9 µM	3.42	73.2	5.15	21.3	1.53	2.96	13.6	30.2	–	–	–	–	–	–	–
C[C@@H](Oc1cc(-n2cnc3ccc(OCC4CCN(C)CC4)cc32)sc1C(N)=O)c1ccccc1C(F)(F)F	0.631	5.02 µM	0.114	4.08	1.37	4.75	0.039	0.0959	0.0643	0.246	–	–	–	–	–	–	–
O=S(=O)(Nc1ccc2ccc3cccc4ccc1c2c34)c1ccccc1	–	> 100 µM	–	> 100	–	> 100	–	24.4	–	> 100	–	–	–	–	–	–	–
O=C(O)Cc1ccccc1	> 1000	> 1000 µM and 1780 µM	> 1000	> 2000	–	> 2000	–	> 2000	> 1000	> 1000	–	–	–	–	–	–	–
CN(C)c1ccc(N=C(C#N)c2nc(N)nc(N3CCOCC3)n2)cc1	–	–	44.1	> 100	35	> 100	53.2	> 100	49.8	> 100	–	–	–	–	–	–	–
O=C1/C(=C\c2ccccc2)CN(C(=O)c2ccccc2F)C/C1=C\c1ccccc1	2.48	7.13 µM	2.34	7.22	1.86	3.58	1.13	3.32	2.73	6.41	–	–	–	–	–	–	–
COC(=O)Oc1nn(C(=O)OC)c(=O)c2ccccc12 (tested in a mixture with another compound)	–	> 100 µM	–	> 100	–	–	–	> 100	–	> 100	–	–	–	–	–	–	–
CCOC(=O)/C(=C/c1c(-c2ccccc2)[nH]c2ccccc12)C(=O)c1ccc(Cl)cc1	3.73	57.5 µM	3.08	> 100	8.82	> 100	3.02	> 100	5.87	> 100	–	–	–	–	–	–	–
COc1ccc2c(c1)C(=O)/C(=C/c1ccc(OCC(=O)c3ccc(Cl)cc3)cc1)O2	22.1	84.6 µM	14.7	69.1	18.4	59.1	22.9	91.8	16.4	29.9	–	–	–	–	–	–	–
COc1cccc(C2C3=C(COC3=O)N(CCO)c3cc4c(cc32)CCC4)c1 (stereo not given)	0.0285	32.4 µM	0.0577	> 50	0.0819	1.19	0.0131	0.0334	0.0884	0.321	–	–	–	–	–	–	–
CCCCCNC(=O)C1C(=O)N(CCCCC)C(=O)/C1=N\N (stereo not given)	–	–	–	–	–	–	–	–	–	–	> 100	> 100	> 100	60	–	–	–
Cc1ccc2c(c1)/C(=N\N=C/c1cn(C(C)C)c3ccccc13)C(=O)N2	10.6	> 100 µM	0.723	45.3	3.58	> 100	2.16	10.3	8.17	> 100	–	–	–	–	–	–	–
C/C(=N\NC(=S)Nc1ccccc1)c1ccccn1	0.0857	38.4 µM	< 0.0171	5.73	1.87	13.9	0.67	4.28	0.746	3.03	–	–	–	–	–	–	–
c1ccc2c(c1)SCCCSCCCS2	–	–	–	> 100	–	> 100	–	> 100	–	> 100	–	–	–	–	–	–	–
NCCCNCCCNc1nc2ccccc2c2[nH]c3ccccc3c12	0.132	1.54 µM	0.481	2.14	1.05	2.4	0.581	2.08	0.0756	1.51	–	–	–	–	–	–	–
CCN1C(=O)N(CC)C2C1NN=c1s/c(=C\c3ccc([N+](=O)[O-])cc3)c(=O)n12 (stereo not given)	0.328	> 72.5 µM	0.387	> 75.9	1.55	16.5	–	–	0.424	> 100	–	–	–	–	–	–	–
Cn1cc(-c2csc(-c3cn(C)c4ncccc34)n2)c2ccccc21	0.451	18.8 µM	0.397	> 100	0.409	26.2	0.0414	0.186	0.436	23.5	–	–	–	–	–	–	–
COc1ccc(C(NCCNC(c2ccc(OC)c(OC)c2)c2cc3c(cc2O)OCO3)c2cc3c(cc2O)OCO3)cc1OC (stereo not given)	–	> 100 µM	–	6.64	–	6.22	–	4.11	–	8.51	–	–	–	–	–	–	–
O=C(CN1c2ccccc2Sc2ccccc21)n1cnc2ccccc21	–	> 100 µM	–	> 100	–	> 100	–	> 100	–	> 100	–	–	–	–	–	–	–
COc1cc2c(cc1OCCCN1CCN(CCCOc3cc4c(cc3OC)C(=O)C3CCC[C@H]3C=N4)CC1)N=C[C@@H]1CCCC1C2=O (stereo not given in full)	1.42	15.1 µM	2.99	> 77.1	1.7	> 100	5.89	30.3	2.41	> 100	–	–	–	–	–	–	–
CC/C(=C(/CC)c1ccc(OP(=O)([O-])[O-])cc1)c1ccc(OP(=O)([O-])[O-])cc1.N.N.N.N.[Pt+4].[Pt+4]	–	–	–	–	–	–	–	–	–	–	–	> 100	> 100	6.81	59	9.51	2.3
c1ccc(COc2ccc(Nc3ncnc4ccc(-c5ccco5)cc34)cc2)cc1	7.71	> 23.5 µM	8.47	> 23.5	6.87	> 25	6.83	22.3	5.74	24.6	–	–	–	–	–	–	–
CCN=C(N)CSS(=O)(=O)O	–	> 100 µM	–	> 100	–	> 100	–	> 100	–	> 100	–	–	–	–	–	–	–

SMILES	GI50 (HS 578T breast) [µM]	TGI (HS 578T breast)	GI50 (PC-3 prostate) [µM]	TGI (PC-3 prostate) [µM]	GI50 (BT-549 breast) [µM]	TGI (BT-549 breast) [µM]	GI50 (MDA-MB-435) [µM]	TGI (MDA-MB-435) [µM]	GI50 (DU-145 prostate) [µM]	TGI (DU-145 prostate) [µM]	TGI (M19-MEL melanoma) [µM]	TGI (HOP-18 NSCLC) [µM]	TGI (DLD-1 colon) [µM]	TGI (SNB-78 CNS) [µM]	GI50 (HOP-18 NSCLC) [µM]	GI50 (DLD-1 colon) [µM]	GI50 (SNB-78 CNS) [µM]
CC1(C)OCC(C2OC(On3nnc4ccc(Cl)cc43)C3OC(C)(C)OC23)O1 (stereo not given)	–	> 100 µM	–	> 100	–	> 100	–	> 100	–	> 100	–	–	–	–	–	–	–
Cn1cccc1C1CC(=O)N(CCC[Se]C#N)C1=O (stereo not given)	2.44	7.33 µM	2.19	5.63	–	–	1.78	3.48	1.81	3.78	–	–	–	–	–	–	–
CCN(CC)c1ccc(/C=C/C2=[N+](C)c3ccccc3C2(C)C)cc1	0.152	20.9 µM	0.167	31.7	0.226	1.96	0.288	4.91	0.492	19	–	–	–	–	–	–	–
CC(=O)C(CN1CCOCC1)C(c1ccccc1)c1c(O)c2ccccc2oc1=O (stereo not given)	–	> 100 µM	–	> 100	–	> 100	–	> 100	–	> 100	–	–	–	–	–	–	–
O=C(Nc1ccc(Cl)cc1)C(=O)C1=C(O)c2ccccc2OC1	–	> 100 µM	–	> 100	–	> 100	–	> 100	–	> 100	–	–	–	–	–	–	–
COC(=O)[C@@]12C3=NO[C@]1(C(=O)OC)C(O[Si](C)(C)C(C)(C)C)C1OC(C)(C)OC1[C@@H]2[C@@H](OCc1ccccc1)CC3 (stereo not given in full)	–	–	–	–	–	–	–	–	–	–	> 100	> 100	> 100	–	–	–	–
COc1ccc2c(c1)CC[C@@H]1C2CC[C@]2(C)C(=O)N(C)C(=O)CC12 (stereo not given in full)	–	> 100 µM	–	> 100	–	> 100	–	> 100	–	> 100	–	–	–	–	–	–	–
Cc1nc(N=C(N)N)nc2ccc3ccccc3c12	0.606	3.16 µM	1.26	4.1	2.67	7.96	1.28	2.77	1.53	5.31	–	–	–	–	–	–	–
Oc1ccc(-c2nc(-c3ccc(F)cc3)c(-c3ccncc3)[nH]2)cc1	–	–	14.1	> 100	17.7	64	6.8	35.1	15.4	> 100	–	–	–	–	–	–	–
COc1cc(-c2cn(-c3ccc(Cl)cc3)c(=O)n2-c2ccccc2)cc(OC)c1OC	> 50.5	97.1 µM	69.9	> 100	> 92.1	> 100	> 100	> 100	> 100	> 100	–	–	–	–	–	–	–
OCCC#Cc1ccccc1C#Cc1ccccc1	11.9	33.3 µM	13.7	35.5	8.98	22.3	11.4	23.5	12.5	26.5	–	–	–	–	–	–	–
CC(=O)/C(=C\n1c(=S)[nH]c2ccc([N+](=O)[O-])cc21)C(=O)Nc1ccccc1C	–	–	–	> 100	–	> 100	–	> 100	–	> 100	–	–	–	–	–	–	–
NC(=NCc1ccccc1)N/N=C\c1ccnc2ccccc12	–	49.4 µM	–	35.9	–	18.6	–	23.9	–	32.3	–	–	–	–	–	–	–
COc1cc2nc(-c3ccc(Cl)cc3)cc(OCCCN3CCC(O)CC3)c2cc1OC	1.91	6.65 µM	2.02	12.7	2.79	13.3	2.05	5.2	2.78	25.9	–	–	–	–	–	–	–
Cn1cc(-c2ccc3c(c2)ncn3-c2ccc(CC(=O)Nc3cc(C(C)(C)C)on3)cc2)cn1	0.187	1.46 µM	2.78	> 74.7	1.49	13.2	2.55	> 100	1.37	9.49	–	–	–	–	–	–	–
C/C=C(\C)C(=O)O[C@@H]1C=CC(=O)O[C@H]1COC(=O)[C@H](C)O	5.61	34.6 µM	10.5	31.6	–	–	15.2	71.6	10.8	31.8	–	–	–	–	–	–	–
CC1=C(C(=O)Nc2cc(F)c(F)cc2F)C(c2cccc([N+](=O)[O-])c2)C(C(=O)Nc2ccccc2C(F)(F)F)=C(C)N1 (stereo not given)	–	–	–	–	–	–	–	–	–	–	91.5	–	94.7	59.2	–	–	–
CNS(=O)(=O)NN(C)S(=O)(=O)c1ccc(C)cc1	–	–	–	–	–	–	–	–	–	–	> 100	–	> 100	–	–	–	–
COC(=O)C1(C)CCc2c(ccc3ccccc23)C1=O (stereo not given)	–	> 100 µM	–	> 100	–	64	–	> 100	–	> 100	–	–	–	–	–	–	–
COc1ccc(N=C/C=C/C(=C/COC(C)=O)OC(C)=O)cc1	–	> 100 µM	–	> 100	–	> 100	–	> 100	–	> 100	–	–	–	–	–	–	–
CCOC(=O)c1c(-c2ccccc2)[nH]c2ccccc2c1=O	–	> 100 µM	–	> 100	–	–	–	–	–	> 100	–	–	–	–	–	–	–
C#CCSc1nnnn1-c1ccc(Br)c(C)c1	2.86	26.9 µM	34.7	> 100	48.7	> 100	17.9	55.8	16.6	47.5	–	–	–	–	–	–	–
C=C(CNCCc1ccc(O)cc1)[C@@H]1CC[C@]2(CO)CC[C@]3(C)[C@H](CC[C@@H]4[C@@]5(C)CCC(NCCO)C(C)(C)[C@@H]5CC[C@]43C)[C@@H]12 (stereo not given in full)	1.69	3.85 µM	1.6	3.29	1.5	3.15	1.51	2.97	1.6	3.04	–	–	–	–	–	–	–
c1ccc(CNc2nc(Nc3ccc(-c4nc5ccccc5[nH]4)cc3)c3cn[nH]c3n2)cc1	2.45	8.22 µM	1.78	6.36	2.03	5.27	1.97	5.15	3.33	12.5	–	–	–	–	–	–	–
CC1(C)CCC(CN2CCN(c3ccc(C(=O)NS(=O)(=O)c4ccc(NCC5CCOCC5)c([N+](=O)[O-])c4)c(Oc4cnc5[nH]ccc5c4)c3)CC2)=C(c2ccc(Cl)cc2)C1	2.94	12.2 µM	1.93	5.54	3.13	8.66	2.07	5.38	4.47	21.3	–	–	–	–	–	–	–
